Where a name gives a salt, the structure may show the parent alone. Read-outs that look alike come from different tables or passages of the source.
Key:
Type in all cases: biochemical
[1] = target: T1, human JAK1 (a.a. 837-1142) (Homo sapiens, UniProt P23458); assay: In vitro JAK kinase assay (HTRF, phosphorylation of a biotinylated peptide), JAK1; settings: read-out: JAK1 IC50
T1 construct: human JAK1 (a.a. 837-1142); His tag (N); made in house; host or cells: insect cells (baculovirus)
How it was run: (§1)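 Kinase reactions ran at room temperature for 1 h with ATP matched per isoform (JAK1 90 μM, JAK2 30 μM, JAK3 3 μM). After an EDTA stop, the phosphorylated biotin-peptide was read by HTRF using Eu-Py20 and SA-APC after 40 min binding.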

[2] = target: T2, human JAK2 (a.a. 828-1132) (Homo sapiens, UniProt O60674); assay: In vitro JAK kinase assay (HTRF, phosphorylation of a biotinylated peptide), JAK2
T2 construct: JAK2 (a.a. 828-1132); His tag (N); made in house; host or cells: insect cells (baculovirus)
How it was run: as §1

[3] = target: T3, human JAK3 (a.a. 781-1124) (Homo sapiens, UniProt P52333); assay: In vitro JAK kinase assay (HTRF, phosphorylation of a biotinylated peptide), JAK3
T3 construct: JAK3 (a.a. 781-1124); His tag (N); made in house; host or cells: insect cells (baculovirus)
How it was run: as §1

TYK2 = TYK2 (Homo sapiens, UniProt P29597); assay: TYK2 kinase inhibition (Table A1)
[4] = target: T4, Recombinant Human Anaplastic Lymphoma Kinase (Homo sapiens, UniProt Q9UM73); assay: ALK HTRF kinase assay
T4 construct: purchased Invitrogen, Carlsbad, Calif
How it was run: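 IC50 was obtained from a logistic fit of signal versus log inhibitor concentration, using pre- and post-transition baselines and a Hill slope. The signal reported tyrosine phosphorylation of a biotinylated peptide by recombinant human kinase, detected as Eu-to-APC energy transfer.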

[5] = compound at a concentration of 500 nM or 1 mM (not specified), cells shown as percentage
[6] = method AA1 (90 μM ATP) or AA2 (1000 μM ATP), not stated per value
[7] = method AA1 (30 μM ATP) or AA2 (1000 μM ATP), not stated per value
[8] = method AA1 (3 μM ATP) or AA2 (1000 μM ATP), not stated per value
[9] = compound at 500 nM or 1 mM, 90 μM ATP

T4 sequence (Q9UM73 19-1620): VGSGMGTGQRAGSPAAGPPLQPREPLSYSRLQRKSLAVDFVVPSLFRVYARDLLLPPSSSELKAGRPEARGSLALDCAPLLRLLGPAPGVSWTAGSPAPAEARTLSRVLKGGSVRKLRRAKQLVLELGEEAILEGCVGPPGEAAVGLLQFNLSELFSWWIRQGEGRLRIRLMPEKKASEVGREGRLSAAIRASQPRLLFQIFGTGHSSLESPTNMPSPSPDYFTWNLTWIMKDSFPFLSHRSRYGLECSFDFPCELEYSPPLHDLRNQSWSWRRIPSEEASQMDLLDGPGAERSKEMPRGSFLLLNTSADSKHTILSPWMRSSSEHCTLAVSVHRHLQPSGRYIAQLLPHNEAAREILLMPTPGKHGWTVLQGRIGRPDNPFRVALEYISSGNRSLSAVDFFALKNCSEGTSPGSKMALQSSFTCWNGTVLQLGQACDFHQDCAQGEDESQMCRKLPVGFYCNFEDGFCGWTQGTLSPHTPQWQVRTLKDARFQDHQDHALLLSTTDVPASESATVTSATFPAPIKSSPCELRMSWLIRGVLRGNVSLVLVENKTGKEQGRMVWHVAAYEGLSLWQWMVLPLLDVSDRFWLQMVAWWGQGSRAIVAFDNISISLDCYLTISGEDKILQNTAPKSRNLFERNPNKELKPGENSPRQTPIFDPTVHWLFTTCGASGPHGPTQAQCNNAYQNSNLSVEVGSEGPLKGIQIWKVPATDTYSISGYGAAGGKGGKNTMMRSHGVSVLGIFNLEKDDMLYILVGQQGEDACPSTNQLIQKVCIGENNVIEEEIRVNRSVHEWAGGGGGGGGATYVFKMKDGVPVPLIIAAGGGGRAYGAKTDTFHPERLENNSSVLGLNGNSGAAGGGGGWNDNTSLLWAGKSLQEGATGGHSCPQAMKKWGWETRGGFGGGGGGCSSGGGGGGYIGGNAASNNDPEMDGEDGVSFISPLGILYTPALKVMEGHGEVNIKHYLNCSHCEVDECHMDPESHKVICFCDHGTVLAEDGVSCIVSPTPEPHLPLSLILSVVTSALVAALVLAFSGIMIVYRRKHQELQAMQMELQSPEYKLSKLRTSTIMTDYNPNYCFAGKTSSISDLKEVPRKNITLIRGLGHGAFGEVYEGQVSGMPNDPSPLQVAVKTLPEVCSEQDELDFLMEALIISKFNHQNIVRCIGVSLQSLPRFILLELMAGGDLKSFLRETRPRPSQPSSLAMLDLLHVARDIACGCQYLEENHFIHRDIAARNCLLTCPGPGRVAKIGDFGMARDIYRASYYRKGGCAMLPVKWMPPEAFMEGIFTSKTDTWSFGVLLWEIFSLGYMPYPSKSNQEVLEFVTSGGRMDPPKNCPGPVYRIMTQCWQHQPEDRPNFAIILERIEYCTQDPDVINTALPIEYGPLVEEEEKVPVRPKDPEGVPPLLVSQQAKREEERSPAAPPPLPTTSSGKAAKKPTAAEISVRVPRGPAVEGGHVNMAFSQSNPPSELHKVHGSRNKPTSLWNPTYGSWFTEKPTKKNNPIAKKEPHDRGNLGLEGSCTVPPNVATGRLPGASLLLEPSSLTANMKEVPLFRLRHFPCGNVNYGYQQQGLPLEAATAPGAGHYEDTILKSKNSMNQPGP
T2 sequence (O60674 828-1132): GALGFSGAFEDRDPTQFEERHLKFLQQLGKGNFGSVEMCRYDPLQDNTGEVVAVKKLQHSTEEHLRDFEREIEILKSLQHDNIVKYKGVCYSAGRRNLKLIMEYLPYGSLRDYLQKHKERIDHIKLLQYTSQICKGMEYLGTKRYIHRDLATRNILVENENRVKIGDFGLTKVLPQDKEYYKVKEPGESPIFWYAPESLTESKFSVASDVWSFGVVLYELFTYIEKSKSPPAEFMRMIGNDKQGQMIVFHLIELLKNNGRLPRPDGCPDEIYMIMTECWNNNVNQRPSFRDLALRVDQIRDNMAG
Chain of TYK2 (P29597 whole entry): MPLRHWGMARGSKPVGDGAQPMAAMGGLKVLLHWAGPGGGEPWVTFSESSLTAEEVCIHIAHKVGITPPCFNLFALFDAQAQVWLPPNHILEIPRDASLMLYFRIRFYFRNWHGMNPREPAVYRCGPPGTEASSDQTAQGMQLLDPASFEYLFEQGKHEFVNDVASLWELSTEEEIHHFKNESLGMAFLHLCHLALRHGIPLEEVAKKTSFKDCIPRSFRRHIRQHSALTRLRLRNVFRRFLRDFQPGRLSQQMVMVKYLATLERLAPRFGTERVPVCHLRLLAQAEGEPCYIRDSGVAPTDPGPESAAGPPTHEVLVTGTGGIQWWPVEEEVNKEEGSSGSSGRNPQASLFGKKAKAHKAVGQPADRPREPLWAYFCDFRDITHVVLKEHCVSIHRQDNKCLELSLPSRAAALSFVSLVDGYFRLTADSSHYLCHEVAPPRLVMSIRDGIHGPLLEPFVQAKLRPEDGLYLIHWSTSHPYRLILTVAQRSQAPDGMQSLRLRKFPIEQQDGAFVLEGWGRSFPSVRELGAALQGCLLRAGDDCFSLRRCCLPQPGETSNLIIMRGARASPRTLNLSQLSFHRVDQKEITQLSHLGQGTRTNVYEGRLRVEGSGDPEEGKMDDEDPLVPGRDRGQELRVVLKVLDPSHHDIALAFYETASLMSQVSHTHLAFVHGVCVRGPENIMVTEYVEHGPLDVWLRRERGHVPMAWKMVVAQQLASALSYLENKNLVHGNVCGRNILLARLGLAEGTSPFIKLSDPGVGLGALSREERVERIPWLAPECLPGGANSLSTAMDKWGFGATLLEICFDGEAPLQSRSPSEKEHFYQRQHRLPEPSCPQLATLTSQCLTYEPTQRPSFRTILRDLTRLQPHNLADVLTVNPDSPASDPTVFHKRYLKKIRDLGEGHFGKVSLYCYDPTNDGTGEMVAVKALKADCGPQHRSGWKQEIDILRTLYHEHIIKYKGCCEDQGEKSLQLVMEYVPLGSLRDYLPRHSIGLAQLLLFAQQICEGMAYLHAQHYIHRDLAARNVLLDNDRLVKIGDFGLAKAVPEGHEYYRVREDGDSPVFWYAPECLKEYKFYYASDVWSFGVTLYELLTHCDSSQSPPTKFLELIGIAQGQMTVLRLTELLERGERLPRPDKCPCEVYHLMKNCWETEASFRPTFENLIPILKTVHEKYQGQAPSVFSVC
T3 sequence (P52333 781-1124): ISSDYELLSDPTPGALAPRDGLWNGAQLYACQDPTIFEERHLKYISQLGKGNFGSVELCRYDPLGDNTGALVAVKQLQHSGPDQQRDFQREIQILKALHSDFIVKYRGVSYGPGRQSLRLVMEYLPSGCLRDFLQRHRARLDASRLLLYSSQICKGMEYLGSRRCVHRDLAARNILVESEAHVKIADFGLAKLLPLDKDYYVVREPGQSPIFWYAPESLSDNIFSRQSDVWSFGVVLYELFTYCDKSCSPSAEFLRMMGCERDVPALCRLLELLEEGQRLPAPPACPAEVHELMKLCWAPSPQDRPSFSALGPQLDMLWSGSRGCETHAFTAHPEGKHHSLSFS
T1 sequence (P23458 849-1154): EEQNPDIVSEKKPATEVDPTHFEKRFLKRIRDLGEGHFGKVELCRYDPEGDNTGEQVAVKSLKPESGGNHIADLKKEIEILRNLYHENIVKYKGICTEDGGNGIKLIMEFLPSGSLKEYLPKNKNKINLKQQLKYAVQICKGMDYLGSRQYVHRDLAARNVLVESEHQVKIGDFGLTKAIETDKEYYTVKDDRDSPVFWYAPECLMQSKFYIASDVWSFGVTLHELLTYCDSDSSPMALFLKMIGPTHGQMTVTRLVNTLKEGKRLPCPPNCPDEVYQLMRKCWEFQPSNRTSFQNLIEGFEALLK

## O=C1CCc2cccc(c2)Nc2nc(ncc2Cl)Nc2cccc(c2)N1 [Example D76, 6-Chloro-2,4,8,17,24-pentaazatetracyclo[16.3.1.1(3,7).1(9,13)]tetracosa-1(22),3(24),4,6,9(23),10,12,18,20-nonaen-16-one trifluoroacetate]
[1]; Table D1
  IC50: 11 nM
[2]; Table D1
  IC50: 18 nM
[3]; Table D1
  IC50: 117 nM
TYK2; Table D1
  IC50: 13 nM
[4]; Table D1, 90 μM ATP
  IC50: 2050 nM

## CCCS(=O)(=O)Nc1ccc2cc1CCc1cccc(c1)Nc1ncc(Cl)c(n1)N2 [Example B142, N-[6-Chloro-2,4,8,22-tetraazatetracyclo[14.3.1.1(3,7).1(9,13)]docosa-1(20), 3(22),4,6,9(21),10,12,16,18-nonaen-12-yl]propane-1-sulfonamide trifluoroacetate]
[1]; Table B1
  IC50: 0.85 nM
[2]; Table B1
  IC50: 0.31 nM
[3]; Table B1
  IC50: 4.6 nM
TYK2; Table B1
  IC50: 1.5 nM
[4]; Table B1, cells without percent sign
  IC50: 990 nM

## CCc1cccc(NC(=O)Nc2ccc3cc2CCc2cccc(c2)Nc2ncc(Cl)c(n2)N3)c1 [Example B99, N-[6-Chloro-2,4,8,22-tetraazatetracyclo[14.3.1.1(3,7).1(9,13)]docosa-1(20), 3(22),4,6,9(21),10,12,16,18-nonaen-12-yl]-N′-(3-ethylphenyl)urea trifluoroacetate]
[1]; Table B1
  IC50: 7 nM
[2]; Table B1
  IC50: 20 nM
[3]; Table B1
  IC50: 151 nM
TYK2; Table B1
  IC50: 33 nM
[4]; [5]
  ALK % of inhibition at a concentration of 500 nM or 1 mM: 37%

## O=C(Nc1ccc2cc1CCc1cccc(c1)Nc1ncc(Cl)c(n1)N2)C1CCN(C(=O)NC2CCCC2)CC1 [Example A61, N(4)-[6-Chloro-2,4,8,22-tetraazatetracyclo[14.3.1.1(3,7).1(9,13)]docosa-1(20),3(22),4,6,9(21),10,12,16,18-nonaen-12-yl]-N(1)-cyclopentylpiperidine-1,4-dicarboxamide trifluoroacetate]
[1]; [6]
  IC50: 29 nM
[2]; [7]
  IC50: 11 nM
[3]; [8]
  IC50: 16 nM
TYK2
  IC50: 22 nM
[4]; [9]
  ALK % of inhibition at a concentration of 500 nM or 1 mM: 41%

## O=C(CC1CCN(c2ccncc2F)CC1)Nc1ccc2cc1CCc1cncc(c1)Nc1ncc(Cl)c(n1)N2 [Example A243, N-[6-Chloro-2,4,8,18,22-pentaazatetracyclo[14.3.1.1(3,7).1(9,13)]docosa-1(20),3(22),4,6,9(21),10,12,16,18-nonaen-12-yl]-2-[1-(3-fluoropyridin-4-yl)piperidin-4-yl]acetamide tris(trifluoroacetate)]
[1]; [6]
  IC50: 20 nM
[2]; [7]
  IC50: 119 nM
[3]; [8]
  IC50: > 400 nM
TYK2
  IC50: 235 nM
[4]; [9]
  ALK % of inhibition at a concentration of 500 nM or 1 mM: 38%

## CC1(C)Cc2cccc(NC(=O)Nc3ccc4cc3CCc3cccc(c3)Nc3ncc(Cl)c(n3)N4)c2O1 [Example B129, N-[6-Chloro-2,4,8,22-tetraazatetracyclo[14.3.1.1(3,7).1(9,13)]docosa-1(20),3(22),4,6,9(21),10,12,16,18-nonaen-12-yl]-N′-(2,2-dimethyl-2,3-dihydro-1-benzofuran-7-yl)urea trifluoroacetate]
[1]; Table B1
  IC50: 3.7 nM
[2]; Table B1
  IC50: 9.5 nM
[3]; Table B1
  IC50: 184 nM
TYK2; Table B1
  IC50: 32 nM
[4]; [5]
  ALK % of inhibition at a concentration of 500 nM or 1 mM: 7.3%

## Cc1cc(C(=O)N2CC[C@H](NC(=O)Nc3ccc4cc3CCc3cncc(c3)Nc3ncc(Cl)c(n3)N4)C2)no1 [Example B265, N-[6-Chloro-2,4,8,18,22-pentaazatetracyclo[14.3.1.1(3,7).1(9,13)]docosa-1(20),3(22),4,6,9(21),10,12,16,18-nonaen-12-yl]-N′-{(3S)-1-[(5-methylisoxazol-3-yl)carbonyl]pyrrolidin-3-yl}urea bis(trifluoroacetate)]
[1]; Table B1
  IC50: 14 nM
[2]; Table B1
  IC50: 141 nM
[3]; Table B1
  IC50: 85 nM
TYK2; Table B1
  IC50: 15 nM
[4]; [5]
  ALK % of inhibition at a concentration of 500 nM or 1 mM: 23%
